These results are taken from patent publication US20130158066A1, “4-AZAINDOLE INHIBITORS OF CRAC” (Hoffmann-La Roche Inc., priority 2011, published 2013).

This test concerns IL-2 production in Jurkat cell. Briefly: Jurkat IL-2 Production Assay. The class given is cell-based. To be noted: Homo sapiens, Jurkat cell (ATCC), 18-20 h incubation, serum/stimulant condition (1% FBS/PHA or 30% FBS/PMA-ionomycin) not given. On the procedure:
Jurkat IL-2 Production Assay
Jurkat cell (ATCC) was grown in RPMI 1640 with 10% FBS and 1% penicillin/streptomycin. The cell density was kept at 1.2˜1.8×10^6/mL in culture flask before seeding into culture plate, and the cell density in the plate was 0.5×10^6/[…]/well.
RPMI 1640 with 1% FBS or 30% FBS for high serum assay.
serial dilution was done in 100% DMSO, and intermediate dilution was done with RPMI 1640 medium with 1% FBS. The DMSO final concentration in culture well was 0.25%.
PHA (Sigma#L9017-10MG) was used for the assay with 1% FBS in culture medium, and added after 10 minutes exposure of cell to compound/DMSO. The PHA final concentration in culture well was 5 μg/mL. PMA (Sigma# P-8139 5MG)/Ionomycin (Sigma# I0634-5MG) was used for the assay with 30% FBS in culture medium, and added at same time point as the 1% FBS culture assay. The final concentration of PMA was 50 ng/mL, and Ionomycin final concentration was 500 ng/mL.
at 37° C. with 5% CO2 and 95% humidity for 18 h ˜20 h.
IC50 was calculated with the data analysis software XLfit4, General Pharmacology model 251.

As for `Cc1cc(Cl)ncc1-c1ccc2[nH]c(-c3c(F)cccc3Cl)cc2n1` [Example 2, 2-(2-Chloro-6-fluoro-phenyl)-5-(6-chloro-4-methyl-pyridin-3-yl)-1H-pyrrolo[3,2b]pyridine], the IC50 came to 246 nM.
For `Cn1nc(C(F)(F)F)cc1-c1ccc2[nH]c(-c3c(F)cccc3Cl)cc2n1` [Example 3, 2-(2-Chloro-6-fluoro-phenyl)-5-(2-methyl-5-trifluoromethyl-2H-pyrazol-3-yl)-1H-pyrrolo[3,2-b]pyridine] the value was 94 nM; for `Cc1cc(C(F)(F)F)ccc1-c1ccc2[nH]c(-c3c(F)cccc3Cl)cc2n1` [Example 4, 2-(2-chloro-6-fluorophenyl)-5-(2-methyl-4-(trifluoromethyl)phenyl)-1H-pyrrolo[3,2-b]pyridine], 80 nM.
As for `Cc1cc(C#N)ccc1-c1ccc2[nH]c(-c3c(F)cccc3Cl)cc2n1` [Example 5, 4-(2-(2-chloro-6-fluorophenyl)-1H-pyrrolo[3,2-b]pyridin-5-yl)-3-methylbenzonitrile], the IC50 was found to be 347 nM.
Compound `Cc1cc(S(=O)(=O)N(C)C)ccc1-c1ccc2[nH]c(-c3c(F)cccc3Cl)cc2n1` [Example 6, 4-(2-(2-chloro-6-fluorophenyl)-1H-pyrrolo[3,2-b]pyridin-5-yl)-N,N,3-trimethylbenzenesulfonamide] showed an IC50 of 92 nM.
For `Cc1cc(S(=O)(=O)N(C)C)ccc1-c1ccc2[nH]c(-c3ccccc3Cl)cc2n1` [Example 7, 4-[2-(2-Chloro-phenyl)-1H-pyrrolo[3,2-b]pyridin-5-yl]-3,N,N-trimethyl-benzenesulfonamide] the value was 300 nM.
For `Cn1nc(C(F)(F)F)cc1-c1ccc2[nH]c(-c3ccc(F)cc3Cl)cc2n1` [Example 8, 2-(2-Chloro-4-fluoro-phenyl)-5-(2-methyl-5-trifluoromethyl-2H-pyrazol-3-yl)-1H-pyrrolo[3,2-b]pyridine] the value was 147 nM; for `Cc1cc(S(=O)(=O)N(C)C)ccc1-c1ccc2[nH]c(-c3ccc(F)cc3Cl)cc2n1` [Example 9, 4-[2-(2-Chloro-4-fluoro-phenyl)-1H-pyrrolo[3,2-b]pyridin-5-yl]-3,N,N-trimethyl-benzenesulfonamide], 98 nM.
`Cc1cc(S(=O)(=O)N(C)C)ccc1-c1ccc2[nH]c(-c3c(F)cccc3F)cc2n1` [Example 10, 4-[2-(2,6-Difluoro-phenyl)-1H-pyrrolo[3,2-b]pyridin-5-yl]-3,N,N-trimethyl-benzenesulfonamide] yielded an IC50 of 134 nM.
For `Cc1cc(C#N)ccc1-c1ccc2[nH]c(-c3c(F)cccc3F)cc2n1` [Example 11, 4-[2-(2,6-Difluoro-phenyl)-1H-pyrrolo[3,2-b]pyridin-5-yl]-3-methyl-benzonitrile] the value was 767 nM.
For `Cn1nc(C(F)(F)F)cc1-c1ccc2[nH]c(-c3c(F)cccc3F)cc2n1` [Example 12, 2-(2,6-Difluoro-phenyl)-5-(2-methyl-5-trifluoromethyl-2H-pyrazol-3-yl)-1H-pyrrolo[3,2-b]pyridine] the value was 200 nM; for `COc1cc(F)c(-c2cc3nc(-c4ccc(S(=O)(=O)N(C)C)cc4C)ccc3[nH]2)c(F)c1` [Example 13, 4-(2-(2,6-difluoro-4-methoxyphenyl)-1H-pyrrolo[3,2-b]pyridin-5-yl)-N,N,3-trimethylbenzenesulfonamide], 169 nM.

One may read the IC50 as the concentration needed to halve the response being measured. A high value points to weaker potency.
